Data as given in paper PMC10916382, “Repurposing screen identifies novel candidates for broad-spectrum coronavirus antivirals and druggable host targets” (Antimicrobial Agents and Chemotherapy, 2024).
Counter-ions that a name gives are not always drawn. Like-named read-outs stand apart in the source and are kept apart here.

Key:
SARS-CoV-2 [1] = settings: Calu-3 cells; for total cell numbers / reduction of infected cell numbers: 5 µM, relative to DMSO; for total cell numbers: DAPI; for reduction of infected cell numbers: N protein immunofluorescence; for outcome against confirmation criteria of the SARS-CoV-2 counter-screen (<50% infected cell, >75% total cells): single dose of 5 µM
in vitro [2] = settings: human
SARS-CoV-2 [3] = settings: for SI (CC50/IC50): CC50 from LDH assay / IC50 from qRT-PCR
SARS-CoV-2 [4] = experiment: microbe, parasite or virus in culture; settings: Severe acute respiratory syndrome coronavirus 2, Calu-3, 48 h
SARS-CoV-2 [5] = format: cell-based; settings: dose range 0.15 µM to 10 µM, viral genome copies in apical washes and cellular lysates
HCoV-229E [6] = experiment: microbe, parasite or virus in culture; format: cell-based, Homo sapiens sapiens
[7] = system: primary human airway epithelial cells; settings: dose range 0.15 µM to 10 µM, cellular lysates
Calu-3 cells = settings: LDH release, non-infected Calu-3 cells, 48 hours of drug treatment
Huh-7.5/F-Luc cells = settings: for CC50 (µM): Huh-7.5 cells, dose series, maximum tested dose 5 µM; for % cell viability at max. dose [5 µM]: at max. dose 5 µM
in vitro [8] = settings: Anti-SARS-CoV-2 screening on Calu-3 cells: viability [% of control], Calu-3 cells
SARS-CoV-2 [9] = settings: cited from earlier work; for inhibition of SARS-CoV-2 infection: Vero cells
HCoV-229E [10] = experiment: Twelve-step dose titration against HCoV-229E infection on Huh-7.5/F-Luc/Cas9 cells; format: cell-based, Homo sapiens sapiens; settings: Human coronavirus 229E, Huh7.5, twelve-step 1:3 dilutions, n = 3

Row | SMILES | outcome against confirmation criteria of the SARS-CoV-2 counter-screen (<50% infected cell, >75% total cells) (SARS-CoV-2 [1]) | CC50 (in vitro [2]) | SI (CC50/IC50) (SARS-CoV-2 [3]; Calu-3 cells) | IC50 (SARS-CoV-2 [4]) | IC90 (SARS-CoV-2 [4]) | antiviral activity against SARS-CoV-2 in HAE cells (SARS-CoV-2 [5]) | cytotoxicity in HAE cells, GAPDH mRNA [7] | Anti-SARS-CoV-2 screening on Calu-3 cells: intracellular SARS-CoV-2 infection measured via immunofluorescence imaging [% of control] (SARS-CoV-2 [1]) | CC50 (µM) (Huh-7.5/F-Luc cells) | also measured
1 | CN1CC[C@H](c2c(O)cc(O)c3c(=O)cc(-c4ccccc4Cl)oc23)[C@H](O)C1 [Flavopiridol] | qualified as a hit in both imaging- and qRT-PCR-based assays | 460 nM | 2.21 | 210 nM | 520 nM | the reduction in viral genome copies could not be separated from an increase in cytotoxicity |  |  |  | total cell numbers (SARS-CoV-2 [1]): ≥ 75%; reduction of infected cell numbers (SARS-CoV-2 [1]): more than 50%
2 | CC1(C)CC[C@]2(NC(=O)C(C)(F)F)CC[C@]3(C)[C@H](C(=O)C=C4[C@@]5(C)C=C(C#N)C(=O)C(C)(C)[C@@H]5CC[C@]43C)[C@@H]2C1 [Omaveloxolone] | did not meet the inclusion criteria | > 1250 nM | > 8.66 | 140 nM | 2410 nM | inhibited SARS-CoV-2 infection at 1.25 µM and 2.5 µM | maintaining high cell viability |  |  | IC50 (HCoV-229E [6]; Human coronavirus 229E, Huh7.5, 48 h, read-out: IC50 against HCoV-229E): 78 nM
3 | Cc1cc(-c2nc3cc(F)ccc3s2)ccc1NC(=O)[C@@H](N)CCCCN [Phortress, reference compound] |  |  | 1.49 |  |  | dose dependently inhibited SARS-CoV-2 infection | without reducing GAPDH mRNA levels | 46.05 % of control | greater than maximum tested dose | Anti-SARS-CoV-2 screening on Calu-3 cells: viability [% of control] (SARS-CoV-2 [1]): 106.32 % of control; total cell numbers (SARS-CoV-2 [1]): ≥ 75%; reduction of infected cell numbers (SARS-CoV-2 [1]): more than 50%; IC50 (HCoV-229E [6]; Huh-7.5/F-Luc cells, 8-step dose series, 48 hours at 33°C, read-out: IC50 against HCoV-229E): 230 nM; IC90 (SARS-CoV-2 [3]; Calu-3 cells, viral genome copies in supernatant 48 hours post-infection): 164000 nM; IC50 (SARS-CoV-2 [3]; Calu-3 cells, viral genome copies in supernatant 48 hours post-infection, n = 3): 13300 nM; CC50 (Calu-3 cells): 19900 nM; % cell viability at max. dose [5 µM] (Huh-7.5/F-Luc cells): 252.77%
4 | COCCN1CCN(Cc2ccc(-c3n[nH]c4c3C(=O)c3c(NC(=O)NN5CCOCC5)cccc3-4)cc2)CC1 [RGB-286638, reference compound] | did not meet our stringent confirmation criteria |  |  |  |  |  |  | 123.82 % of control | greater than maximum tested dose | IC50 (HCoV-229E [6]; Human coronavirus 229E, Huh7.5): 120 nM; virus load in the culture fluid (SARS-CoV-2 [3]; Calu-3 cells, screening dose 5 µM, 48 hours post-inoculation): reduced virus load; viability (in vitro [8]): 19%
5 | COc1cc(F)ccc1-c1cc(Nc2cc(CS(C)(=N)=O)ccn2)ncc1F (single isomer, unassigned; (+)) [(+)-BAY-1251152, reference compound] | did not meet our stringent confirmation criteria |  |  |  |  |  |  | 51.46 % of control | greater than maximum tested dose | Anti-SARS-CoV-2 screening on Calu-3 cells: viability [% of control] (SARS-CoV-2 [1]): 100.11 % of control; IC50 (HCoV-229E [6]; HCoV 229E infection, dose series, max. dose 5 µM, read-out: IC50): 130 nM; virus load in the culture fluid (SARS-CoV-2 [3]): reduced virus load; % cell viability at max. dose [5 µM] (Huh-7.5/F-Luc cells): 115.26%
6 | COc1ccc2[nH]c([S+]([O-])Cc3ncc(C)c(OC)c3C)nc2c1 (centres unmarked) [OMP, omeprazole] |  |  |  |  |  |  |  |  |  | inhibition of SARS-CoV-2 infection (SARS-CoV-2 [9]): inhibited SARS-CoV-2 infection of Vero cells
7 | O=Cc1c2[nH]c3ccccc3c2cc2[nH]c3ccccc3c12 [FICZ, 6-formylindolo(3,2-b) carbazole] |  |  |  |  |  |  |  |  |  | inhibition of SARS-CoV-2 infection (SARS-CoV-2 [9]): inhibited SARS-CoV-2 infection of Vero cells
8 | COC(=O)/C=C/C(=O)OC [DMF, dimethyl fumarate] |  |  |  |  |  |  |  |  |  | anti-SARS-CoV-2 effects (SARS-CoV-2 [9]): anti-SARS-CoV-2 effects at high concentrations
9 | CC/C(=C(/C#N)c1ccc(OCCN(CC)CC)cc1)c1ccc(Cl)cc1 [P-3622, Z-3-(4-chlorophenyl)-2-(4-(2-(diethylamino)ethoxy)phenyl)pent-2-enenitrile] |  | 19500 nM | 2.09 | 9350 nM | 23400 nM | limited antiviral activity | well tolerated | 97.91 % of control | greater than maximum tested dose | IC50 (HCoV-229E [6]; Human coronavirus 229E, Huh7.5): 880 nM; IC50 (HCoV-229E [10]): 359 nM; viability (in vitro [8]): 97.7%
